These compounds were tested on MCF-10A (assay: normalised response (% of control), CellTiter-Glo; higher = more viable cells (100 = DMSO, 0 = benzethonium chloride kill control)). Conditions: incubation time: 72 h.
Experimental: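 DSRT, 72 h incubation, CellTox Green / CellTiter-Glo readout. Signal is normalised to DMSO and benzethonium chloride controls. Value is the normalised response at the highest dose.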
In the case of COc1cc2c(NC3CCN(C(C)C)CC3)nc(C3CCCCC3)nc2cc1OCCCN1CCCC1 [UNC0638] (10000 nM), the normalised response is reported as 0.31%. C=CC(=O)Nc1cc2c(Nc3ccc(F)c(Cl)c3)ncnc2cc1OCCCN1CCOCC1 [Canertinib] (10000 nM) showed a normalised response of 0.13%. C=CC(=O)N1CCC[C@@H](n2nc(-c3ccc(Oc4ccccc4)cc3)c3c(N)ncnc32)C1 [Ibrutinib] (1000 nM) was tested, and the normalised response was 42.5%. O=C(O)CCCCC(CCSCc1ccccc1)SCc1ccccc1 (stereo unspecified) [CPI-613] (10000 nM) was tested, and the normalised response was 103%. In the case of CCc1cncnc1N1CCN(Cc2nc3ccc(C(F)(F)F)cc3[nH]2)CC1 (10000 nM), the normalised response is reported as 93.8%.

The compounds below were run on CAL-51 (assay: normalised response (% of control), CellTox Green; higher = less cell death (100 = DMSO, 0 = benzethonium chloride kill control)). Conditions: incubation time: 72 h.
Method in brief: (§1)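 Every value is a normalised signal taken at one concentration of a dilution series. Compound was placed in 384-well plates at 5 concentrations in 10-fold steps over a compound-specific 10,000-fold range, and 20 µl of breast cancer cell suspension was seeded onto it. After 72 h, CellTox Green fluorescence (485/520 nm) was measured first and CellTiter-Glo luminescence second, following 10 min at room temperature. Each plate was scaled to 0.1 % DMSO (100) and a positive kill control (0).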
For CCCCC(=O)OCC(=O)[C@]1(O)Cc2c(O)c3c(c(O)c2[C@@H](O[C@H]2C[C@H](NC(=O)C(F)(F)F)[C@H](O)[C@H](C)O2)C1)C(=O)c1c(OC)cccc1C3=O [Valrubicin] (5000 nM), the normalised response was 106%. Cc1ccc(-c2cc(C(F)(F)F)nn2-c2ccc(S(N)(=O)=O)cc2)cc1 [Celecoxib] (10000 nM) was tested, and the normalised response was 107%. For Oc1ncc(N(CCCl)CCCl)c(O)n1 [Uracil mustard] (10000 nM), the normalised response was 97.5%. C=CCc1cccc(/C=N/NC(=O)CN2CCN(Cc3ccccc3)CC2)c1O [PAC-1] (10000 nM) gave a normalised response of 68.6%. For COc1cc2c(NC3CCN(C(C)C)CC3)nc(C3CCCCC3)nc2cc1OCCCN1CCCC1 [UNC0638] (10000 nM), the normalised response was -16.4%. C=CC(=O)Nc1cc2c(Nc3ccc(F)c(Cl)c3)ncnc2cc1OCCCN1CCOCC1 [Canertinib] (10000 nM) was tested, and the normalised response was 5.47%. Work on C=CC(=O)N1CCC[C@@H](n2nc(-c3ccc(Oc4ccccc4)cc3)c3c(N)ncnc32)C1 [Ibrutinib] (1000 nM) yielded a normalised response of 87.5%. O=C(O)CCCCC(CCSCc1ccccc1)SCc1ccccc1 (stereo unspecified) [CPI-613] (10000 nM) was tested, and the normalised response was 103%. CCc1cncnc1N1CCN(Cc2nc3ccc(C(F)(F)F)cc3[nH]2)CC1 (10000 nM) was tested, and the normalised response was 94.5%.

These compounds were tested on MDA-MB-436 in the same assay as above. Conditions: incubation time: 72 h.
Method in brief: as §1
CCCCC(=O)OCC(=O)[C@]1(O)Cc2c(O)c3c(c(O)c2[C@@H](O[C@H]2C[C@H](NC(=O)C(F)(F)F)[C@H](O)[C@H](C)O2)C1)C(=O)c1c(OC)cccc1C3=O [Valrubicin] (5000 nM) showed a normalised response of 147%. Compound Cc1ccc(-c2cc(C(F)(F)F)nn2-c2ccc(S(N)(=O)=O)cc2)cc1 [Celecoxib] (10000 nM) has a normalised response of 99.8%. Work on Oc1ncc(N(CCCl)CCCl)c(O)n1 [Uracil mustard] (10000 nM) yielded a normalised response of 97.6%. For C=CCc1cccc(/C=N/NC(=O)CN2CCN(Cc3ccccc3)CC2)c1O [PAC-1] (10000 nM), the normalised response was 103%. With COc1cc2c(NC3CCN(C(C)C)CC3)nc(C3CCCCC3)nc2cc1OCCCN1CCCC1 [UNC0638] (10000 nM) the normalised response was 18.6%. Compound C=CC(=O)Nc1cc2c(Nc3ccc(F)c(Cl)c3)ncnc2cc1OCCCN1CCOCC1 [Canertinib] (10000 nM) has a normalised response of 87.1%. C=CC(=O)N1CCC[C@@H](n2nc(-c3ccc(Oc4ccccc4)cc3)c3c(N)ncnc32)C1 [Ibrutinib] (1000 nM) showed a normalised response of 93%. For O=C(O)CCCCC(CCSCc1ccccc1)SCc1ccccc1 (stereo unspecified) [CPI-613] (10000 nM), the normalised response was 91.2%. CCc1cncnc1N1CCN(Cc2nc3ccc(C(F)(F)F)cc3[nH]2)CC1 (10000 nM) gave a normalised response of 102%.

The compounds below were run on DU-4475 in the same assay as above. Conditions: incubation time: 72 h.
Method in brief: as §1
Work on CCCCC(=O)OCC(=O)[C@]1(O)Cc2c(O)c3c(c(O)c2[C@@H](O[C@H]2C[C@H](NC(=O)C(F)(F)F)[C@H](O)[C@H](C)O2)C1)C(=O)c1c(OC)cccc1C3=O [Valrubicin] (5000 nM) yielded a normalised response of 147%. Work on Cc1ccc(-c2cc(C(F)(F)F)nn2-c2ccc(S(N)(=O)=O)cc2)cc1 [Celecoxib] (10000 nM) yielded a normalised response of 99.5%. Oc1ncc(N(CCCl)CCCl)c(O)n1 [Uracil mustard] (10000 nM) showed a normalised response of 100%. For C=CCc1cccc(/C=N/NC(=O)CN2CCN(Cc3ccccc3)CC2)c1O [PAC-1] (10000 nM), the normalised response was 86.9%. Compound COc1cc2c(NC3CCN(C(C)C)CC3)nc(C3CCCCC3)nc2cc1OCCCN1CCCC1 [UNC0638] (10000 nM) has a normalised response of 88.3%. C=CC(=O)Nc1cc2c(Nc3ccc(F)c(Cl)c3)ncnc2cc1OCCCN1CCOCC1 [Canertinib] (10000 nM) showed a normalised response of 89.5%. In the case of C=CC(=O)N1CCC[C@@H](n2nc(-c3ccc(Oc4ccccc4)cc3)c3c(N)ncnc32)C1 [Ibrutinib] (1000 nM), the normalised response is reported as 97.2%. In the case of O=C(O)CCCCC(CCSCc1ccccc1)SCc1ccccc1 (stereo unspecified) [CPI-613] (10000 nM), the normalised response is reported as 98.8%. CCc1cncnc1N1CCN(Cc2nc3ccc(C(F)(F)F)cc3[nH]2)CC1 (10000 nM) gave a normalised response of 104%.

The compounds below were run on Hs578T in the same assay as above. Conditions: incubation time: 72 h.
Method in brief: as §1
CCCCC(=O)OCC(=O)[C@]1(O)Cc2c(O)c3c(c(O)c2[C@@H](O[C@H]2C[C@H](NC(=O)C(F)(F)F)[C@H](O)[C@H](C)O2)C1)C(=O)c1c(OC)cccc1C3=O [Valrubicin] (5000 nM) gave a normalised response of 193%. With Cc1ccc(-c2cc(C(F)(F)F)nn2-c2ccc(S(N)(=O)=O)cc2)cc1 [Celecoxib] (10000 nM) the normalised response was 68.1%. Oc1ncc(N(CCCl)CCCl)c(O)n1 [Uracil mustard] (10000 nM) gave a normalised response of 135%. C=CCc1cccc(/C=N/NC(=O)CN2CCN(Cc3ccccc3)CC2)c1O [PAC-1] (10000 nM) gave a normalised response of 116%. COc1cc2c(NC3CCN(C(C)C)CC3)nc(C3CCCCC3)nc2cc1OCCCN1CCCC1 [UNC0638] (10000 nM) was tested, and the normalised response was 13.9%. With C=CC(=O)Nc1cc2c(Nc3ccc(F)c(Cl)c3)ncnc2cc1OCCCN1CCOCC1 [Canertinib] (10000 nM) the normalised response was -21.7%. C=CC(=O)N1CCC[C@@H](n2nc(-c3ccc(Oc4ccccc4)cc3)c3c(N)ncnc32)C1 [Ibrutinib] (1000 nM) was tested, and the normalised response was 92%. For O=C(O)CCCCC(CCSCc1ccccc1)SCc1ccccc1 (stereo unspecified) [CPI-613] (10000 nM), the normalised response was 94.3%. Compound CCc1cncnc1N1CCN(Cc2nc3ccc(C(F)(F)F)cc3[nH]2)CC1 (10000 nM) has a normalised response of 72.9%.

From the supplement of paper PMC4862054
